Values quoted from earlier work, collected in paper PMC9260974 (BMC Pharmacology & Toxicology, 2022).

Conditions: in vivo, po; cited from earlier work

C[C@H](CS)C(=O)N1CCC[C@H]1C(=O)O [captopril]
Reduction of bioavailability by food: 35-50%
